In patent US20080281104A1, “Membrane-Anchoring Fluorescent Probe” (THE UNIVERSITY OF TOKYO, priority 2005, published 2008):

Experiments:
HeLa cells = experiment: Fluorescence intensity change of loaded cells on extracellular pH change; type: cell-based; conditions: extracellular fluid pH from 7.4 to 6.7 to 6.4, loaded cells, fluorescence microscope (FIG. 5)
Method: As a control experiment, a fluorescein ester derivative (fluorescein diacetate), which can penetrate cell membranes and undergo hydrolysis by cytoplasmic esterase to distribute fluorescein intracellularly, was loaded on the cells, then the cells were treated in the same manner.

HeLa cell membranes = experiment: Function as NO probe on cell membrane (NOC13 addition); type: cell-based; conditions: 7.5 μmol/L probe, PBS(+) pH 7.4, NOC13 100 μmol/L at 120 seconds and 1 mmol/L at 1,800 seconds, HeLa cells (FIG. 6)
Method: To 1 mL of an extracellular fluid (pH 7.4, PBS (+)) loaded with DAF-PIP-DPPE (7.5 μmol/L) was added NOC13 solution (500 μL) prepared before use.

[1] = Fluorescence time course of reaction with NO released from NOC13; conditions: 1.27 μmol/L in PBS(−), 37° C., NOC13 5, 50, 100, 500 μmol/L (FIG. 2)
Method: To a 1.27 μmol/L DAF-PIPA PBS(−) solution at 37° C. was added NOC13 as a sustained release-type NO releasing agent at concentrations of 5 μmol/L, 50 μmol/L, 100 μmol/L, and 500 μmol/L, respectively, and change in the reaction with NO over time was measured.

Q: For `CC(=O)Oc1ccc2c(c1)Oc1cc(OC(C)=O)ccc1C21OC(=O)c2ccccc21` [fluorescein diacetate], which “decrease in fluorescence intensity according to pH change of extracellular fluid” value (HeLa cells) is on record?
A: no change in fluorescence intensity

Q: For `CCCCCCCCCCCCCCCC(=O)OC[C@H](COP(=O)(O)OCCNC(=O)C1CCN(C(=O)c2cc(N)c(N)cc2-c2c3ccc(=O)cc-3oc3cc(O)ccc23)CC1)OC(=O)CCCCCCCCCCCCCCC` [DAF-PIP-DPPE], which “fluorescence intensity change on cell membranes after NOC13” value (HeLa cell membranes) is on record?
A: Marked increase in the fluorescence intensity

Q: For DAF-piperidinic Acid [DAF-PIPA], which “change in fluorescence intensity on reaction with NO” value [1] is on record?
A: became larger in a NO concentration-dependent manner
